{
  "source": "patent US5641751A",
  "about": "“Tumor necrosis factor inhibitors” (Centocor, Inc., priority 1995, dated 1997)",
  "biological_target": "T1, human TNFα (Homo sapiens, UniProt P01375)",
  "T1 construct": "purchased Biosource, Camarillo, Calif",
  "T1 sequence (P01375 77-233 limits assumed)": "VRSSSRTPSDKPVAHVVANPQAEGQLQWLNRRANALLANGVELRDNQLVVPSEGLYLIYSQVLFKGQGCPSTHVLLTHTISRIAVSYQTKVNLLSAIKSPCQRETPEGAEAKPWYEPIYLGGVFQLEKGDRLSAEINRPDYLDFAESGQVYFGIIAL",
  "test": "p55 Receptor/IgG fusion protein binding assay (inhibition of TNFα capture by p55-Ig coated plate)",
  "conditions": "inhibition of binding of TNFα to p55TNFr-IgG chimeric construct",
  "procedure": "This assay was designed to identify peptides which bind to human TNFα and thereby prevent the capture of the TNFα by a microtiter plate coated with p55-Ig fusion protein. A constant concentration of human TNFα is preincubated with the test peptide and then incubated on the p55-Ig coated microtiter wells. Bound TNFα is detected using a specific antisera and an alkaline phosphatase-conjugated probe.\nA 96-well, U-bottom polyvinylchloride microtiter plate was coated with 50 μl/well of p55-Ig fusion protein at 5 μg/ml in 0.01M sodium phosphate, 0.15M sodium chloride (PBS) by incubation overnight at 4° C. or 2 hours at 37° C. The fusion protein, which consists of a p55 TNF receptor protein portion and an IgG portion, can be produced as disclosed in U.S. application Ser. No. 08/010,406 filed Jan. 29, 1993 which is incorporated herein by reference. The plate was washed three times with 0.05% Tween-20 in PBS, then blocked, by adding 150 μl/well of assay buffer (10 mM N-2-hydroxyethylpiperazine-N'-[…] (HEPES) pH 7.2, containing 0.1% porcine gelatin, 0.1% Tween-80, and 0.01% sodium azide) and continuing incubation for 1 hour at 37° C. or at 4° C. for 1-7 days.\nLyophilized peptides to be tested were weighed in tared 12×75 mm polystyrene tubes and reconstituted to a concentration of 1.2 mM with assay buffer. Each suspension was sonicated in a water bath for 1-5 minutes and vortexed 15-30 seconds to disperse large particles. Serial dilutions of each peptide suspension were prepared using assay buffer in a 96-well polystyrene microtiter plate. Additional wells received Fab fragment of the mouse/human monoclonal anti-human TNFα antibody cA2 (positive control) or assay buffer (negative control). […] The polystyrene dilution plate was then sealed and incubated 1 hour at room temperature on an orbital mixer set at moderate speed.\nFollowing the sample preincubation, blocker was discarded from the p55-Ig coated plate and blotted dry. Aliquots (50 μl) of each peptide or control were transferred into duplicate wells on the p55-Ig coated plate which was then sealed and incubated 1 hour at 37° C. Duplicate wells containing only assay buffer were included as a plate blank. After incubation the p55-Ig plate was washed three times with 0.05% Tween-20 in PBS.\nTo detect TNFα captured by the p55-Ig plate, all wells were incubated in succession with polyclonal rabbit anti-human TNFα (Genzyme, Boston, Mass.; 1:500 in assay buffer, 50 μl/well), biotinylated goat anti-rabbit Ig (H&L) (Vector Laboratories, Burlingame, Calif.; 1 μg/ml in assay buffer, 50 μl/well) and streptavidin-alkaline phosphatase conjugate (Pierce, Rockford, Ill.; 1 μg/ml in assay buffer, 50 μl/well). All incubations were for 1 hour at 37° C. and after each incubation the plate was washed three times with 0.05% Tween-20 in PBS. Fifty microliters of alkaline phosphatase substrate solution (alkaline buffer (Sigma, St. Louis, Mo.) diluted 1:500 in deionized water plus one 5 mg tablet of p-nitrophenyl phosphate (Sigma, St. Louis, Mo.) per 5 ml of diluted buffer) was added to all wells and incubation continued for 20 minutes at room temperature. Color development was stopped by adding to all wells 50 μl of 3N sodium hydroxide. The optical density (OD) at 405 nm was measured on a microtiter plate reader (Molecular Devices Vmax plate reader), with the plate blank wells subtracted as background. The activity of each peptide was then expressed as the percent inhibition of TNFα capture by the p55-Ig plate, relative to the amount of TNFα captured in wells containing only assay buffer (negative control), as follows:\n% inhibition=100-((mean OD peptide/mean OD negative control)×100).\nThe inhibition of binding of TNFα to p55TNFr-IgG chimeric construct was performed as described above using several embodiments of the invention. The peptides were tested to determine the concentration necessary to inhibit TNFα by 50% (IC50) relative to TNFα activity in the absence of the peptide.",
  "key": {"[1]": {"conditions": "TNFα 25 ng/ml, read-out: IC50 (concentration necessary to inhibit TNFα by 50%)"}, "[2]": {"conditions": "highest value observed, read-out: maximum IC50 observed"}, "[3]": {"conditions": "lowest value observed, read-out: minimum IC50 observed"}},
  "note": "Where two headings read alike, the source gives them in different places. Ends that are not written are not given here.",
  "data": [
    {"substance": "Ac-LLIYYVSNRYTG-NH2 [SEQ ID NO:17]", "values": [
      {"measurement": "IC50", "setting": "[1]", "result": 155, "unit": "µM"},
      {"measurement": "IC50", "setting": "[2]", "result": 210, "unit": "µM"},
      {"measurement": "IC50", "setting": "[3]", "result": 51, "unit": "µM"}
    ]},
    {"substance": "Ac-LLIYYVSNRYTGV-NH2 [SEQ ID NO:18]", "values": [
      {"measurement": "IC50", "setting": "[1]", "result": 307, "unit": "µM"},
      {"measurement": "IC50", "setting": "[2]", "result": 829, "unit": "µM"},
      {"measurement": "IC50", "setting": "[3]", "result": 29, "unit": "µM"}
    ]},
    {"substance": "Ac-NINPNNGGTIYNQFKFGKG-NH2 [SEQ ID NO:1]", "values": [
      {"measurement": "IC50", "setting": "[1]", "result": 20, "unit": "µM"},
      {"measurement": "IC50", "setting": "[2]", "result": 91, "unit": "µM"},
      {"measurement": "IC50", "setting": "[3]", "result": 8, "unit": "µM"}
    ]},
    {"substance": "Ac-SASSSVSFMYW-NH2 [SEQ ID NO:2]", "values": [
      {"measurement": "IC50", "setting": "[1]", "result": 29, "unit": "µM"},
      {"measurement": "IC50", "setting": "[2]", "result": 60, "unit": "µM"},
      {"measurement": "IC50", "setting": "[3]", "result": 9, "unit": "µM"}
    ]},
    {"substance": "Ac-VIWRGGSTDYNAAFMS-NH2 [SEQ ID NO:20]", "values": [
      {"measurement": "IC50", "setting": "[1]", "result": 86, "unit": "µM"},
      {"measurement": "IC50", "setting": "[2]", "result": 150, "unit": "µM"},
      {"measurement": "IC50", "setting": "[3]", "result": 37, "unit": "µM"}
    ]},
    {"substance": "SASSSVSFMYA-NH2 [SEQ ID NO:4]", "values": [
      {"measurement": "IC50", "setting": "[1]", "result": 80, "unit": "µM"},
      {"measurement": "IC50", "setting": "[2]", "result": 87, "unit": "µM"},
      {"measurement": "IC50", "setting": "[3]", "result": 74, "unit": "µM"}
    ]},
    {"substance": "SEQ ID NO:3: SEQ ID NO:3 in which the carboxy terminal tryptophan is tryptophan amide; comprises a fragment of SEQ ID NO:2 (SAASSVSFMYW-NH2)", "values": [
      {"measurement": "IC50", "setting": "[1]", "result": 23, "unit": "µM"},
      {"measurement": "IC50", "setting": "[2]", "result": 33, "unit": "µM"},
      {"measurement": "IC50", "setting": "[3]", "result": 10, "unit": "µM"}
    ]}
  ]
}
